In general, IC50 refers to the concentration that inhibits the measured activity by half.

This passage reports inhibition, IC50 and Activity results from ChEMBL document CHEMBL3046403, “Synthesis and anticancer activity of para-xylyl linked bis-benzimidazolium salts and respective Ag(I) N-heterocyclic carbene complexes” (Med Chem Res, 2013).

Activity calls are given as the source filed them. The rule behind the calls is not given here.

Assay type in all cases: functional, cell-based
The subject of test [1] is HL-60. Nature of the test: Anticancer activity against Homo sapiens (human) HL60 cells assessed as inhibition of cell proliferation after 72 hr by MTT assay. The settings on record: for IC50: HL-60, 72 h. (In general: Formazan colour is commonly taken as a measure of viable cells.)
Test [2] deals with HCT-116. The experiment in a line: Anticancer activity against Homo sapiens (human) HCT116 cells assessed as inhibition of cell proliferation after 72 hr by MTT assay. The settings on record: for IC50: HCT-116, 72 h.
In test [3] the test system is HL-60. Nature of the test: Anticancer activity against Homo sapiens (human) HL60 cells assessed as abnormal morphological changes after 48 hr by inverted phase contrast microscopic analysis.
The subject of test [4] is HCT-116. The experiment in a line: Anticancer activity against Homo sapiens (human) HCT116 cells assessed as cells with abnormal large number of vacuoles in cytoplasm after 48 hr by inverted phase contrast microscopic analysis.
Test [5] concerns HCT-116. The experiment in a line: Anticancer activity against Homo sapiens (human) HCT116 cells assessed as abnormal morphological changes after 48 hr by inverted phase contrast microscopic analysis.
For test [6], the system named is HCT-116. Nature of the test: Anticancer activity against Homo sapiens (human) HCT116 cells assessed as reduction in cell number after 48 hr by inverted phase contrast microscopic analysis.

Consider `CCn1c[n+](Cc2ccc(C[n+]3cn(CC)c4ccccc43)cc2)c2ccccc21`, for which the inhibition entry in the test on HL-60 [1] and in the test with HCT-116 [2] was “Dose-dependent effect” throughout. Further, the IC50 in the test with HL-60 [1] was found to be 39.5 µM; with HCT-116 [2], 0.3 µM. The outcome with HL-60 [3] and in the test on HCT-116 [4] was Active.

Consider `CCCn1c[n+](Cc2ccc(C[n+]3cn(CCC)c4ccccc43)cc2)c2ccccc21`, for which the inhibition result in the test with HL-60 [1] and in the test with HCT-116 [2] was “Dose-dependent effect” each time. The IC50 was determined as 49.4 µM with HL-60 [1] and 1.4 µM in the test with HCT-116 [2]. The outcome in the test with HL-60 [3] and with HCT-116 [5] was Active.

Take `CCCCn1c[n+](Cc2ccc(C[n+]3cn(CCCC)c4ccccc43)cc2)c2ccccc21`: the inhibition result with HL-60 [1] and in the test on HCT-116 [2] was “Dose-dependent effect” in each case. Besides, the IC50 in the test with HL-60 [1] is 55.7 µM; in the test with HCT-116 [2], 18.7 µM. For the same compound, the result in the test with HL-60 [3] and in the test on HCT-116 [6] was Active.

As to `O=c1[nH]cc(F)c(=O)[nH]1` [FLUOROURACIL], the inhibition result with HL-60 [1] and in the test on HCT-116 [2] was “Dose-dependent effect” in each case. In addition, the IC50 in the test with HL-60 [1] came out at 5.4 µM.
